Results from US20060240402A1, “Marine invertebrate gametes and embryos as an assay system for therapeutic screening” (priority 2005, published 2006).

Experiments:
mouse xenograft models = conditions: cited from earlier work
Spisula oocytes = assay: Whole egg germinal vesicle breakdown (GVBD) and spindle assembly assay; format: cell-based, Spisula solidissima
Method: Oocytes are prepared as generally described in Allen R D. (1953) Biol Bull. 105:213-239; Palazzo, R. E., Vaisberg, E., Cole, R. W. and Rieder, C. L. (1992) Science. 256: 219-221; Vogel, J. M., Stearns, T., Rieder, C. L. and Palazzo, R. E. (1997) J. Cell Biol. 137: 193-202; and Schnackenberg, B. J. and Palazzo, R. E. (1999) Biology of the Cell. 91: 429-438.
(§1) Briefly, adult Spisula or Mulinia are collected from the Atlantic Ocean, often by the Marine Resources Department of the Marine Biological Laboratory (Woods Hole, Mass.) or from commercial fisherman and maintained in flow-through sea water tanks at ˜13° C. containing artificial sea water (ASW). Oocytes are then dissected from ripe ovaries, passed through cheese cloth, and washed in sea water by three cycles of suspension/sedimentation. Oocytes are then activated by treatment with KCl for 4 min, and lysates are prepared as previously described by Palazzo et al. (Palazzo, R. E., J. B. Brawley, and L. I. Rebhun (1988). Zool. Sci. (Tokyo). 5: 603-611).
(§2) Aster formation in oocytes, embryos, and lysates is assessed with polarized light microscopy by adding 3% hexylene glycol to small aliquots and warming to 24° C. (Palazzo, R. E., J. B. Brawley, and L. I. Rebhun (1988). Zool. Sci. (Tokyo). 5: 603-611). The remaining lysate is aliquoted, snap frozen, and stored at −80° C. Frozen lysates retain the ability to assemble asters after years of storage.
In one embodiment of the invention, oocyte activation to induce GVBD, aster formation, spindle assembly, and cleavage can be induced by 5-hydroxy triptamine (5-HT, serotonin), fertilization, or depolarization of the cell plasma membrane by treatment with KCl when cells are incubated in sea water. This requires the entry of calcium into the cell after treatment with these agents. Thus, the GVBD, or events subsequent to GVBD, can be used as indicators for hormone-receptor interactions (serotonin), effect of calcium channel blockers (resulting in a block of GVBD and subsequent events after treatment with KCL, 5HT or sperm), or agents that block fertilization generally. Therefore the present invention can be used not only to screen for antimitotic agents but also putative neuromodulators (serotonin inhibitors and the like), cardiomodulators, vasoactive agents (calcium channel blockers) and anti-fertility agents.
Using the whole egg assay described above, Spisula oocytes were treated with 0.25 μM HMN-176 or 0.001% DMSO and activated to undergo germinal vesicle (nucleus) breakdown (GVBD), and aster and spindle formation.

human tumor cell lines = conditions: several human tumor cell lines; cited from earlier work
[1] = system: centrosomes in Spisula lysates; assay: Lysate aster formation assay; format: biochemical, Spisula solidissima; conditions: 0.025 uM, 0.25 uM or 2.5 uM
Method: as §1, §2
Using the lysate aster formation assay described above, Spisula lysates were warmed to room temperature with lysates containing varying amounts of HMN-176 (0.025 uM, 0.25 uM or 2.5 uM) or DMSO (0.0001%, 0.001%, or 0.01%) as control. […]

[2] = system: Isolated centrosomes reconstituted with sea urchin tubulin; assay: Isolated centrosome assay (aster formation in defined media); format: biochemical, Spisula solidissima; conditions: 0.25 uM, 0.75 mg/mL sea urchin tubulin, time course of 25 minutes
Description: Centrosomes are isolated and prepared according to the methods of Vogel et al. (Vogel, J. M., Stearns, T., Rieder, C. L. and Palazzo, R. E. (1997) J. Cell Biol. 137: 193-202). Briefly, centrosomes are isolated from lysates by sucrose density-gradient centrifugation using a modification of the procedures known in the art for isolation of mammalian centrosomes. As such, lysates are thawed on ice, and aliquots are removed and tested for aster formation using hexylene glycol and polarized light microscopy as previously described. For each preparative gradient, 2-3 ml of crude lysate (˜9-18×10^6 centrosomes) are diluted with 0.60 vol of aster buffer (Aster Buffer: 20 mM sodium-Pipes, pH 7.2, 100 mM NaCl, 5.0 mM MgSO4), resuspended, and centrifuged (5,500 g/4° C./10 min) using a rotor (model JS 13.1; Beckman Instruments). […] Fractions (1.0 ml) are collected at 4° C. by bottom puncture of centrifuge tubes, and sucrose density is determined with the use of a hand-held refractometer.
Fractions are tested for centrosome content based on their ability to organize microtubules in the form of radial astral arrays when reconstituted with tubulin media. Thus, 10 μl aliquots from each fraction are diluted into 40 μl of tubulin media (0.3-0.7 mg/ml three-cycled sea urchin tubulin in RAB buffer containing 2 mM GTP) and incubated for 10 min at ambient temperature, and asters are counted using a hemacytometer viewed with a polarized light microscope. […]
Centrosome assembly and function is crucial for the coordinated polymerization of microtubules that leads to spindle assembly and chromosome segregation during mitosis. […] The isolated centrosome assay is used to (1) induce the synchronous assembly of centrosomes in hundreds of grams of live Spisula oocytes or large quantities of oocyte lysates and is performed according to the methods disclosed by Palazzo, R. E., Vaisberg, E., Cole, R. W. and Rieder, C. […]

sea urchin tubulin = assay: Tubulin polymerization (turbidity) assay, sea urchin tubulin; format: biochemical, Strongylocentrotus purpuratus; conditions: 0.025 uM, 0.25 uM and 2.5 uM
Method: Sea urchin (Strongylocentrotus purpuratus) microtubules are prepared by three cycles of polymerization/depolymerization as previously described (Suprenant, K. A., and J. C. Marsh (1987) J. Cell Sci. 87: 71-84). Aliquots of ˜0.5-2.0 mg/ml protein are stored in 100 mM potassium-Pipes, pH 6.9, 1 mM EGTA, 5 mM MgSO4, 2 mM GTP (reassembly buffer) at −80° C. Three-cycled tubulin is diluted with reassembly buffer to 0.7 mg/ml for all functional assays unless otherwise stated.
(§3) The tubulin polymerization assay used herein is performed according to the teachings of Vogel, J. M., Steams, T., Rieder, C. L. and Palazzo, R. E. (1997) J. Cell Biol. 137: 193-202 and Suprenant K A, Marsh J C. (1987) J Cell Sci. 87:71-84, each of which is incorported herein by reference in its entirety.
The effect of HMN-176 on sea urchin tubulin (0.75 mg/mL of S. purpuratus tubulin at 26° C.) polymerization in defined media was examined according to the methods described above. Sea urchin tubulin was isolated from Strongylocentrotus purpuratus oocytes by three cycles of microtubule polymerization and depolymerization. After the third cycle, microtubules were depolymerized, centrifuged to clarify, and the resulting supernatant adjusted to a concentration of 0.75 mg/ml protein. Samples were aliquoted and stored at −80° C.
The polymerization assay was used to test the effects of varying concentrations of HMN-176 (0.025 uM, 0.25 uM and 2.5 uM) along with varying amounts of DMSO for control (0.0001%, 0.001% and […]), respectively. Polymerization of untreated tubulin was also measured.
(§4) Sea urchin and clam tubulin turbidity assays were performed at 30° C. and 0.7 mg/mL of tubulin. Doses of 0.025 uM, 0.25 uM and 2.5 uM of HMN-176 were compared to DMSO treatment, all of which were compared to untreated control.

clam tubulin = assay: Tubulin turbidity assay, clam tubulin; format: biochemical, Spisula solidissima; conditions: 0.025 uM, 0.25 uM and 2.5 uM; 30° C., 0.7 mg/mL of tubulin
Method: Three-cycled tubulin can also be prepared from Spisula oocyte lysates using a modification of the procedure described in Suprenant, K. A. (1989) Exp. Cell Res. 184: 167-180. Lysates are thawed and diluted with 0.8 vol of dilution buffer (100 mM potassium-Pipes, pH 7.2, 4 mM EGTA, 1 mM MgSO4, 1 mM DTT) containing 1 mM GTP, […] leupeptin, and 0.2 mM phenylmethylsulfonyl fluoride. Diluted lysate is then gently resuspended on ice and centrifuged (39,000 g/2° C./30 min) using a rotor (model JA20; Beckman Instruments Fullerton, Calif.) to clarify. Supernatants are collected and three-cycled tubulin prepared as previously described (Suprenant, K. A. (1989) Exp. Cell Res. 184: 167-180).
as §3, §4

CFPAC cells = assay: Mammalian spindle phenotypes and time in mitosis in CFPAC cells; format: cell-based, human
Method: To determine the effect of HMN-176 on mammalian cell lines, the transformed human cell line, CFPAC, was used. CFPAC cells were derived from a ductal adenocarcinoma (liver metastasis) from a patient with cystic fibrosis (ATCC #CRL-1918). CFPAC cellswere treated for 2 hours with 0.5 uM DMSO or 0.5 uM HMN-176 (n=79). Cells were studied for progression through mitosis and cell cleavage using video microscopy, or prepared for immunofluorescence analysis with antibodies to visualize beta tubulin or treated with Hoechst 33342 (Sigma Aldrich, St. Louis, Mo. to visualize DNA and chromosomes.

[3] = marine invertebrate gamete system, concentration not given
[4] = 0.75 mg/mL S. purpuratus tubulin at 26° C.
[5] = 0.5 uM treatment for 2 hours, n = 79

SMILES: COc1ccc(S(=O)(=O)N(C(C)=O)c2ccccc2/C=C/c2cc[n+]([O-])cc2)cc1 [HMN-214, (E)-4-{2-[2-(N-acetyl-N-[4-methoxybenzenesulfonyl]amino]stillbazole]}1-oxide]
- Antitumor activity (mouse xenograft models): potent antitumor activity

SMILES: COc1cc2c(c(OC)c1OC)-c1ccc(OC)c(=O)cc1[C@@H](NC(C)=O)CC2 [Colchicine]
- Effect on GVBD (Spisula oocytes; [3]): does not affect GVBD
- Effect on spindle assembly (Spisula oocytes; [3]): inhibits spindle assembly
- Cytotoxicity (human tumor cell lines): cytotoxic

SMILES: COc1ccc(S(=O)(=O)Nc2ccccc2/C=C/c2cc[n+]([O-])cc2)cc1 [HMN-176, (E)-4-{[2-N-[4-methoxybenzenesulfonyl]amino]stillbazole}1-oxide]
- Effect on germinal vesicle breakdown (GVBD) (Spisula oocytes; 0.25 μM, activated Spisula oocytes, observed at 9-26 minutes): not affecting GVBD
- Effect on spindle assembly in oocytes (Spisula oocytes; 0.25 μM, activated Spisula oocytes, observed at 15 and 26 minutes): inhibit spindle assembly
- Status of centrosomes (immunofluorescence alpha-/gamma-tubulin) ([1]; lysates): centrosomes remained intact in all samples
- Effect on aster formation in lysates ([1]; lysates warmed to room temperature): blocked aster formation in the lysate aster formation assay in a dose dependent manner
- Aster formation by isolated centrosomes in defined media [2]: no asters were formed
- Background microtubule polymerization (not centrosome-associated) [2]: microtubule polymerization was observed in the background
- Status of centrosomes (gamma-tubulin staining) [2]: Centrosomes remained intact in all samples
- Effect on polymerization of tubulin (sea urchin tubulin; [4]): only minor effect on the polymerization of tubulin
- Effect on rate of microtubule polymerization (sea urchin tubulin; [4]): may slightly lower the rate of microtubule polymerization
- Effect on ultimate plateau of tubulin polymerization (turbidity) (sea urchin tubulin; 0.75 mg/mL S. purpuratus tubulin at 26° C., by 25 minutes): does not affect the ultimate plateau
- Effect on sea urchin tubulin turbidity (sea urchin tubulin; 30° C., 0.7 mg/mL of tubulin): Very little to no effect
- Effect on clam tubulin turbidity (clam tubulin): Very little to no effect
- Spindle types observed (CFPAC cells; 0.5 uM for 2 hours): multipolar spindles with disorganized chromosomes
- Spindle type: Bipolar, number of cells (CFPAC cells; [5]): 13
- Spindle type: Bipolar, percent of cells (CFPAC cells; [5]): 16%
- Spindle type: Monopolar, number of cells (CFPAC cells; [5]): Monopolar 0 (0%)
- Spindle type: Monopolar, percent of cells (CFPAC cells; [5]): Monopolar 0 (0%)
- Spindle type: Multipolar, number of cells (CFPAC cells; [5]): 66
- Spindle type: Multipolar, percent of cells (CFPAC cells; [5]): 84%
- Time that CFPAC cells were in mitosis (CFPAC cells; 0.5 uM, video microscopy): 147 ± 55 min
